# Laboratory results reported in patent US7087590B2, “19-norbufalin derivatives, their preparation and pharmaceutical compositions containing them” (Yissum Research Development Company of the Hebrew …, priority 2000, dated 2006).
# Like-named read-outs stand apart in the source and are kept apart here.
# How the values were obtained:
# [1] = test system: guinea pigs
# Text: Intraventricular pressure was monitored using a Millar catheter. […] The upper traces depict ECG recording from a subcutaneous electrode (lead II). The middle traces show left ventricle pressure and the lower traces the dp/dt (change in pressure with time).
# [2] = test system: guinea pigs; assay: Toxicity on injection to guinea pigs; settings: doses of up to 13 mg/kg
# [3] = test system: guinea pigs; remark: listed apart in the source
# Text: Guinea pigs were maintained under anesthesia, the jugular artery was catheterized and blood pressure was monitored via a pressure transducer. Two ECG electrodes were placed under the skin and ECG was monitored following amplification.
# [4] = test system: Mg^++-ATPase; assay: Mg++-ATPase activity in rat brain microsomal fraction (with 1 mM ouabain); format: biochemical
# Method: (§1) Total and Na^+ and K^+ dependent ATPase activities were measured in rat brain microsomal fraction. Enzyme activity was measured by the colorimetric determination of inorganic phosphate after the incubation of microsomes (30 μg protein/reaction) at 37° C. in a solution (final volume 500 μl) containing (final concentrations) Tris-HCl ([…], pH 7.4), NaCl (100 mM), KCl (10 mM), MgCl2 (4 mM) and ATP (2 mM, Tris, vanadium free). After 10 minutes preincubation, the ATP was added to initiate the reaction. Reactions were terminated by the addition of 100 μl 5% trichloroacetic acid and the precipitate was removed by centrifugation. Mg^++-ATPase activity was determined by the addition of ouabain (1 mM) to the assay mixture.
# [5] = test system: guinea pig atrial muscle; assay: Heart muscle contractility of isolated atrial strips
# Method: Experiments were conducted on frog atrial muscle or guinea pigs atrium. The animals were anaesthetized by MS22 (frogs) or pentobarbital (guinea pigs) (10 mg/kg). Their hearts were removed quickly into Krebs-Henseleit buffer. Atrial strips were mounted vertically in a chamber at 37° C. The muscle contractility was recorded by a transducer (FSG-01, Experimentia) connected to a computer Acodas software (DataQ instruments). […] The effect of compound 17b at 10 nM to frog atrial muscle. 2.
# [6] = test system: K562 cells; assay: Morphological changes / differentiation of K562 cells; format: cell-based
# Text: Morphological changes of K562 cells, grown in appropriate media, was followed. Control cells after 2 days in culture. • FIG. 4b. Cells after 2 days in culture, the presence of 10^−8M ouabain. […] Cells after 2 days in culture, in the presence of 10^−8M compound 13b. […] Control cells after 6 days in culture. • FIG. 4e. Cells after 6 days in culture, in the presence of 10^−7M ouabain. […] Cells after 6 days in culture, in the presence of 10^−6M compound 13b.
# [7] = test system: Na^+,K^+-ATPase; assay: Na+,K+-ATPase activity in rat brain microsomal fraction (colorimetric inorganic phosphate); format: biochemical
# Method: as §1
smiles,measurement,setting,value
"C[C@]12CC[C@H]3[C@@H](CC[C@@H]4C[C@@H](O)CC[C@@H]43)[C@@H]1[C@H](O)C[C@@H]2c1coc(CO)c1 (single isomer, unassigned) [13-3 (β isomer), 4-(3′β,15′βdihydroxy-5β-estran-17β-yl)furan-2-methyl alcohol]",Cardiac contractility in vivo (in words),[1]; 2.6 mg/kg injected to guinea pigs (FIG. 5A),induced an elevation in cardiac contractility
"C[C@]12CC[C@H]3[C@@H](CC[C@@H]4C[C@@H](O)CC[C@@H]43)[C@@H]1[C@H](O)C[C@@H]2c1coc(CO)c1 [Compound 13-3, 4-(3′β,15′βdihydroxy-5β-estran-17β-yl)furan-2-methyl alcohol]",LVEDP (left ventricle end diastolic pressure),"[1]; β isomer of 13-3, 2.6 mg/kg, 10 min after injection, control 5.52",51.70 mmHg
same,LVSP (left ventricle systolic pressure),"[1]; β isomer of 13-3, 2.6 mg/kg, 10 min after injection, control 10.83",67.88 mmHg
same,HR (heart rate),"[1]; β isomer of 13-3, 2.6 mg/kg, 10 min after injection, control 226.2",295.74 beat/min
same,dp/dt (change in pressure with time),"[1]; β isomer of 13-3, 2.6 mg/kg, 10 min after injection, control 2248.19",3319.11 mmHg/sec
same,LVEDP (left ventricle end diastolic pressure),"[1]; β isomer of 13-3, 2.6 mg/kg, 33 min post injection, control 5.52",51.98 mmHg
same,LVSP (left ventricle systolic pressure),"[1]; β isomer of 13-3, 2.6 mg/kg, 33 min post injection, control 10.83",124.61 mmHg
same,HR (heart rate),"[1]; β isomer of 13-3, 2.6 mg/kg, 33 min post injection, control 226.2",325 beat/min
same,dp/dt (change in pressure with time),"[1]; β isomer of 13-3, 2.6 mg/kg, 33 min post injection, control 2248.19",4215.86 mmHg/sec
same,LVEDP (left ventricle end diastolic pressure),"[1]; β isomer of 13-3, 2.6 mg/kg, 7 hr. post injection, control 5.52",37.57 mmHg
same,LVSP (left ventricle systolic pressure),"[1]; β isomer of 13-3, 2.6 mg/kg, 7 hr. post injection, control 10.83",107.45 mmHg
same,HR (heart rate),"[1]; β isomer of 13-3, 2.6 mg/kg, 7 hr. post injection, control 226.2",340 beat/min
same,dp/dt (change in pressure with time),"[1]; β isomer of 13-3, 2.6 mg/kg, 7 hr. post injection, control 2248.19",5146.12 mmHg/sec
same,Toxicity when injected to guinea pigs,[2],not toxic
same,Effect on digoxin-induced cardiac arrhythmia,"[3]; 2.5 mg/kg subcutaneously 30 minutes before 2.5 mg/kg digoxin, guinea pigs (FIG. 6C)",prevented induction of cardiac arrhythmia
"C[C@]12CC[C@H]3[C@@H](CC[C@@H]4CC(OCc5ccccc5)CC[C@@H]43)[C@@H]1[C@H](O)C[C@@H]2c1coc(C2OCCO2)c1 (stereo partly drawn) [Compound 13b, 4-(′3-benzyloxy-15′β-hydroxy-5β-estran-17′β-yl)furan-2-carbaldehyde ethylene acetal]",Toxicity when injected to guinea pigs,[2],not toxic
same,Mg^++-ATPase activity (% of control),[4]; 1 nM compound,100 % of control
same,Mg^++-ATPase activity (% of control),[4]; 10 nM compound,86 % of control
same,Mg^++-ATPase activity (% of control),[4]; 100 nM compound,88 % of control
same,Mg^++-ATPase activity (% of control),[4]; 1000 nM compound,89 % of control
same,Mg^++-ATPase activity (% of control),[4]; 10000 nM compound,86 % of control
same,Increase in the force of contraction,"[5]; guinea pig atrial muscle preparation, after 10 minutes (FIG. 3a)",about 30%
same,Heart muscle contractility (in words),"[5]; guinea pig muscle strip, 10 minutes after addition (FIG. 3a)",increase of heart muscle contractility is evident
same,K562 cell morphology / differentiation,"[6]; 10^−6M, 6 days in culture","Cell elongation, indicative of differentiation"
same,K562 cell morphology / differentiation,"[6]; 10^−8M, 2 days in culture",differentiation manifested in cells elongation
same,"Na^+, K^+-ATPase activity (% of control)",[7]; 1 nM compound,100 % of control
same,"Na^+, K^+-ATPase activity (% of control)",[7]; 10 nM compound,64 % of control
same,"Na^+, K^+-ATPase activity (% of control)",[7]; 100 nM compound,38 % of control
same,"Na^+, K^+-ATPase activity (% of control)",[7]; 1000 nM compound,22 % of control
same,"Na^+, K^+-ATPase activity (% of control)",[7]; 10000 nM compound,2 % of control
"C[C@H]1O[C@@H](O[C@H]2[C@@H](O)C[C@H](O[C@H]3[C@@H](O)C[C@H](O[C@H]4CC[C@@]5(C)[C@H](CC[C@@H]6[C@@H]5C[C@@H](O)[C@]5(C)[C@@H](C7=CC(=O)OC7)CC[C@]65O)C4)O[C@@H]3C)O[C@@H]2C)C[C@H](O)[C@@H]1O [Digoxin, digoxin, reference compound]",Cardiac contractility in vivo (in words),[1]; 2 mg/kg injected to guinea pigs,increase in contractilty
same,Bradycardia,"[1]; 2 mg/kg, guinea pigs (FIG. 5B)",induced bradycardia
same,Death after,"[1]; digoxin 2 mg/kg, guinea pig",40 min
same,LVEDP (left ventricle end diastolic pressure),"[1]; digoxin 2 mg/kg, control 17.3",49.78 mmHg
same,LVSP (left ventricle systolic pressure),"[1]; digoxin 2 mg/kg, control 75",232.4 mmHg
same,HR (heart rate),"[1]; digoxin 2 mg/kg, control 327",300 beat/min
same,dp/dt (change in pressure with time),"[1]; digoxin 2 mg/kg, control 1620.7",4248.4 mmHg/sec
same,Time to lethal cardiac arrhythmia,"[3]; 2.5 mg/kg subcutaneously, guinea pigs (FIG. 6B)",2.5 h
"C[C@@H]1O[C@@H](O[C@H]2C[C@@H](O)[C@]3(CO)[C@H]4[C@H](O)C[C@]5(C)[C@@H](C6=CC(=O)OC6)CC[C@]5(O)[C@@H]4CC[C@]3(O)C2)[C@H](O)[C@H](O)[C@H]1O [ouabain, reference compound]",K562 cell morphology / differentiation,"[6]; 10^−7M, 6 days in culture",Cell degradation and death is evident
same,K562 cell morphology / differentiation,"[6]; 10^−8M, 2 days in culture",does not show any effects
